# Data: patent US4221782A (priority 1978, dated 1980)
# Where two headings read alike, the source gives them in different places.
# What was measured:
# stickleback [1] = assay: Exploratory test with azidotrimethylsilicane; assay type: in vivo; conditions: relative to other azides
# threespine stickleback = system: threespine stickleback; design: species or system Gasterosteus aculeatus; conditions: in vivo
# chinook salmon = assay: Example 4: LC0 of chinook, artesian well water, 96-hour bioassays; assay type: in vivo, O. tschawytscha; conditions: for LC0 of chinook: artesian well water, 96-hour
# Description: The desirable fishes tested in bioassays included the sockeye salmon (Oncorhynchus nerka), chinook salmon, (O. tschawytscha) and the steelhead, a sea-run variety of rainbow trout (Salmo gairdneri).
# torrent sculpin = assay: Toxicity to torrent sculpin, 96-hour bioassays; assay type: in vivo, Cottus rotheus
# [2] = Example 5: survival/recovery of sockeye after exposure to sodium azide, 20-day bioassays; assay type: in vivo, Oncorhynchus nerka; conditions: sockeye salmon, in vivo; exposed for 16 hours or less; end of 20-day bioassays
# Description: (§1) Stickleback subjected to the same test conditions experienced almost 100% mortality.
# sockeye [3] = assay: as above; assay type: in vivo, Oncorhynchus nerka; conditions: exposed for 16 hours or less
# Description: as §1
# rats [4] = assay: Lowest published lethal oral dose in rats (1974 Toxic Substances List); assay type: in vivo, rat; conditions: water treated at 1 mg/l of azide
# Experimental: It would be impossible for a bird or mammal to drink enough water when treated at 1 mg/l of azide for the azide to harm the animal. To drink a lethal dose, an animal would have to drink 46 times its weight in water. Nevertheless safety precautions should be taken when handling the chemical.
# rats [5] = conditions: cited from earlier work
# sockeye [6] = conditions: in vivo
# cutthroat trout = assay: Toxicity to cutthroat trout, 96-hour bioassays; assay type: in vivo, Salmo clarki
# redside shiner = assay: Toxicity to redside shiner, 96-hour bioassays; assay type: in vivo, Richardsonius balteatus
# [7] = system: freshwater races of rainbow trout; assay: Toxicity to rainbow trout, 96-hour bioassays; assay type: in vivo, Salmo gairdneri
# bridgelip sucker = assay: Toxicity to bridgelip sucker, 96-hour bioassays; assay type: in vivo, Catastomus columbianus
# stickleback [8] = system: stickleback
# Experimental: For field applications the concentration of NaN3 or N3 -- would vary with water quality--mainly with regard to dissolved solid and hydrogen ion concentrations. […] For the treatment of rivers and shorelines of lakes the concentrations of azide that would be used would be those that would kill stickleback in 12 to 24 hours.
# speckled dace = assay: Toxicity to speckled dace, 96-hour bioassays; assay type: in vivo, Rhinichthys cataractae
# stickleback [9] = system: stickleback; remark: listed apart in the source
# Description: For water with different chemistry and for application of different concentrations of the azide the delay time of application of deactivator could vary.
# sockeye salmon = system: sockeye salmon
# Experimental: Fingerling sockeye salmon in artesian water were exposed to a concentration of 5 mg/l of potassium azide for 24 hours at a temperature of 15 degrees Celsius.
# Ten sockeye (length range, 55-93 mm) were assigned to each of four aquaria (load, 2.7 g/l) and concentrations of chemicals were added as indicated in Table 8. The time of mortality was noted.
# [10] = system: threespine stickleback and sockeye salmon; conditions: increases in temperature
# Experimental: Delineation bioassays determined primarily the LC50 and LC100 of stickleback and the LC0 and LC50 of salmonids.
# Stickleback (mean length, 44 mm) and sockeye (mean length, 74 mm) in artesian well water were treated with various concentrations of potassium azide in laboratory facilities for 96 hours at 5, 10 and 15 degrees Celsius to determine approximate selectivity and safety indices.
# [11] = up to 5.0 mg/l in artesian well water
compound,measurement,setting,value
C[Si](C)(C)N=[N+]=[N-] [azidotrimethylsilicane],biological activity/potency and selectivity of the azide radical in organic compounds,stickleback [1],equally biologically active or potent and equally selective
[Ca+2].[I-].[I-] [calcium iodide],azide neutralizing effectiveness,threespine stickleback,neutralized azide more effectively than calcium chloride
same,toxicity of azide in standing water and duration of its potency,threespine stickleback,can be controlled
[N-]=[N+]=[N-] [sodium azide],LC0 of chinook salmon compared with sockeye and steelhead,chinook salmon; allowing for the 0.8 differential,substantially greater than that of sockeye and steelhead
same,LC0 of chinook,chinook salmon; 5° C.,10.0 mg/L
same,LC0 of chinook,chinook salmon; 10° C.,8.0 mg/L
same,LC0 of chinook,chinook salmon; 15° C.,8.0 mg/L
same,toxicity,torrent sculpin; up to 1.5 mg/l in river water,not toxic
same,toxicity,torrent sculpin; [11],not toxic
same,survival at 480 h,[2],100%
same,recovery of sockeye from ill effects,sockeye [3],complete recovered from any ill effects
same,amount of water to drink for a lethal dose,rats [4],46 times its weight
same,"LDL0, oral (lowest published lethal dose)",rats [5],46 mg for 2 kg of rat
same,mean times of death at about equal equivalents,sockeye [6],about equal mean times of death
same,toxicity,cutthroat trout; up to 1.5 mg/l in river water,not toxic
same,toxicity,cutthroat trout; [11],not toxic
same,toxicity,redside shiner; up to 1.5 mg/l in river water,not toxic
same,toxicity,redside shiner; [11],not toxic
same,toxicity,[7]; up to 1.5 mg/l in river water,not toxic
same,toxicity,[7]; [11],not toxic
same,toxicity,bridgelip sucker; up to 1.5 mg/l in river water,not toxic
same,toxicity,bridgelip sucker; [11],not toxic
same,toxicity to fish in river water as opposed to artesian water,stickleback [8]; allowing for the 0.8 differential between sodium and potassium azide,about 5 times
same,LC100 of stickleback,"stickleback [8]; river water, 96-hour bioassays, 15 degrees Celsius",0.34 mg/L
same,toxicity,speckled dace; up to 1.5 mg/l in river water,not toxic
same,toxicity,speckled dace; [11],not toxic
[Cl][Sn][Cl] [stannous chloride],toxicity of azide in standing water and duration of its potency,threespine stickleback,can be controlled
calcium chloride,delay in application of calcium chloride necessary for maximizing the kill of stickleback,"stickleback [9]; 5 mg/l potassium azide, artesian water",2 h
same,death time for stickleback,stickleback [9]; calcium chloride and potassium azide added about simultaneously,about doubled
same,Survival time,sockeye salmon; 3.5 mg/l calcium chloride (1 equivalent weight) after 24 h at 5 mg/l potassium azide,90 h
same,Survival time,sockeye salmon; 7.0 mg/l calcium chloride (2 equivalent weights) after 24 h at 5 mg/l potassium azide,112 h
same,Survival time,sockeye salmon; 14.0 mg/l calcium chloride (4 equivalent weights) after 24 h at 5 mg/l potassium azide,148 h
same,effect on mortality of sockeye exposed to 5 mg/l potassium azide for 24 hours,"sockeye salmon; 1, 2, 4, and 8 equivalent weights",delayed the mortality
same,survival of all sockeye in the azide,sockeye salmon; 8 equivalents of calcium chloride,complete survival of all sockeye
same,Survival time,sockeye salmon; […] calcium chloride (8 equivalent weights) after 24 h at 5 mg/l potassium azide,Did not die
same,toxicity of azide in standing water and duration of its potency,threespine stickleback,can be controlled
potassium azide,effect of temperature on toxicity,[10],marked increase in the toxicity
